Measured values reported in patent US8178678B2, “Bis-quaternary ammonium salts and methods for modulating neuronal nicotinic acetylcholine receptors” (University of Kentucky Research Foundation, priority 2006, dated 2012).
pKi: −log10 of the molar value.

Assays:
[1] = biological target: T1, Rat Striatal Nicotinic Receptors ([^3H]MLA binding sites; α7) (Rattus norvegicus, UniProt Q05941); assay: Inhibition of [^3H]MLA (methyllycaconitine) binding; conditions: [^3H]MLA, nonspecific S-nicotine, rat brain membranes; for pKi: full concentration effect, read-out: [^3H]MLA binding, Ki; for inhibition at 0.1 µM: read-out: [^3H]MLA binding, % inhibition
T1 construct: Whole brain, excluding cortex and cerebellum, was homogenized in 20 vol of ice-cold buffer; from tissue; host or cells: rat brain membranes (whole brain excluding cortex and cerebellum)
Procedure, shortened: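 Rat brain membranes were washed by repeated centrifugation at 25,000 g, with a 10 min incubation at 37° C. in between. Samples of 250 μl, containing 100-140 μg of membrane protein, 3 nM [^3H]-methyllycaconitine and test analog in 50 mM Tris assay buffer, were incubated in 96-well plates for 60 min at room temperature. Nonspecific binding was defined with 10 μM S-nicotine. Bound radioactivity was collected on polyethylenimine-soaked GF/B filter plates and counted on a TopCount.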

[2] = biological target: T2, Rat Striatal Nicotinic Receptors ([^3H]NIC binding sites; α4β2) (Rattus norvegicus, UniProt P09483+P12390); assay: Inhibition of [^3H]NIC binding; conditions: full concentration effect; 3 nM [^3H]NIC; nonspecific 10 μM cytisine; rat brain membranes; read-out: [^3H]NIC binding, Ki
T2 construct: Whole brain, excluding cortex and cerebellum, was homogenized in 20 vol of ice-cold buffer; from tissue; host or cells: rat brain membranes (whole brain excluding cortex and cerebellum)

[3] = test system: nicotinic receptors mediating S-nicotine-evoked [^3H]DA release in rat striatal slices; assay: Inhibition of S-nicotine-evoked [^3H]dopamine release from superfused rat striatal slices; format: cell-based; conditions: 100 nM analog superfused 60 min before NIC 10 μM, rat striatal slices; for inhibition at 0.1 µM: 1 h, read-out: [^3H]DA release, % inhibition of S-nicotine-evoked release
Protocol: Rat striatal slices (500 μm thickness, 6-8 mg wet weight) were incubated for 30 minutes in Krebs buffer (118 mM NaCl, 4.7 mM KCl, 1.2 mM MgCl2, 1.0 mM NaH2PO4, 1.3 mM CaCl2, 11.1 mM glucose, 25 mM NaHCO3, 0.11 mM L-ascorbic acid, and 0.004 mM disodium EDTA; pH 7.4, and saturated with 95% O2/5% CO2) in a metabolic shaker at 34° C. Slices were rinsed with 15 mL of fresh buffer and incubated for an additional 30 minutes in fresh buffer containing 0.1 μM [^3H]dopamine (DA; 6 slices/3 mL). Subsequently, slices were rinsed with 15 mL of fresh buffer and transferred to a glass superfusion chamber. Slices were superfused (1.0 mL/min) for 60 minutes with Krebs buffer containing nomifensine (10 μM) and pargyline (10 μM) and maintained at 34° C., pH 7.4, with continual aeration (95% O2/5% CO2). Two five minute samples (5 mL each) were collected to determine basal outflow of [^3H]DA. The bis-quaternary ammonium analogs were added to the superfusion buffer after the collection of the second sample and remained in the buffer until 12 consecutive five minute samples were collected. Subsequently, S-nicotine (NIC; 10 μM) was added to the buffer and an additional 12 consecutive five minute samples were collected. At the end of the experiment, each slice was solubilized and the [^3H] content of the tissue determined.
Radioactivity in the superfusate and tissue samples was determined by liquid scintillation spectroscopy. Fractional release for tritium collected in each sample was divided by the total tritium present in the tissue at the time of sample collection and was expressed as a percentage of total tritium. Basal [^3H]outflow was calculated from the average of the tritium collected in the two five minute samples just before addition of the quaternary analog. The sum of the increase in collected tritium resulting from either exposure to the test compound or exposure to S-nicotine in the absence and presence of the test compound equaled total [^3H]overflow. [^3H]Overflow was calculated by subtracting the [^3H]outflow during an equivalent period of prestimulation from the values in samples collected during and after drug exposure. Inasmuch as the radiolabelled compounds were not separated and identified, the tritium collected in superfusate is referred to as either [3H]outflow or [^3H]overflow, rather than as [^3H]DA. [^3H]Overflow primarily represents [^3H]DA in the presence of nomifensine and pargyline in the superfusion buffer.
The bis-quaternary ammonium analogs were also evaluated for their ability to inhibit NIC evoked [^3H]DA release. In these experiments, the striatal slices were superfused for 60 minutes with 100 nM concentration of the quaternary analogs prior to NIC (10 μM) exposure. Antagonist activity was evaluated by comparing the NIC-evoked [^3 H]overflow in the absence and presence of the analogs. The relative order of potency of the quaternary analogs for inhibition of NIC-evoked [^3H]DA release from rat striatal slices is illustrated in Table 1.
^aData are % inhibition at 100 nM concentration of the bis-quaternary ammonium analogs for at least 1-3 independent experiments; with the exception of when a Ki value in μM is provided, in which case a full concentration effect was evaluated. Specific binding in the [^3H]NIC binding assay is calculated as the difference between the total binding of 3 nM [^3H]NIC and nonspecific binding in the presence of 10 μM cold cytisine. Specific binding for the [^3H]MLA binding assay is calculated as the difference between the total binding of […] [^3H]MLA to the receptors alone and its nonspecific binding in the presence of […] cold S-nicotine. Analog-induced inhibition of S-nicotine-evoked [^3H]DA release is calculated as a percent of that in the absence of the bis-quaternary ammonium analog.

[4] = biological target: T2, Rat Striatal Nicotinic Receptors ([^3H]NIC binding sites; α4β2); assay: Inhibition of [^3H]NIC binding; conditions: 100 nM analog, 3 nM [^3H]NIC, nonspecific 10 μM cytisine, rat brain membranes; for inhibition at 0.1 µM: 1 h

T2 sequence (P09483 31-630): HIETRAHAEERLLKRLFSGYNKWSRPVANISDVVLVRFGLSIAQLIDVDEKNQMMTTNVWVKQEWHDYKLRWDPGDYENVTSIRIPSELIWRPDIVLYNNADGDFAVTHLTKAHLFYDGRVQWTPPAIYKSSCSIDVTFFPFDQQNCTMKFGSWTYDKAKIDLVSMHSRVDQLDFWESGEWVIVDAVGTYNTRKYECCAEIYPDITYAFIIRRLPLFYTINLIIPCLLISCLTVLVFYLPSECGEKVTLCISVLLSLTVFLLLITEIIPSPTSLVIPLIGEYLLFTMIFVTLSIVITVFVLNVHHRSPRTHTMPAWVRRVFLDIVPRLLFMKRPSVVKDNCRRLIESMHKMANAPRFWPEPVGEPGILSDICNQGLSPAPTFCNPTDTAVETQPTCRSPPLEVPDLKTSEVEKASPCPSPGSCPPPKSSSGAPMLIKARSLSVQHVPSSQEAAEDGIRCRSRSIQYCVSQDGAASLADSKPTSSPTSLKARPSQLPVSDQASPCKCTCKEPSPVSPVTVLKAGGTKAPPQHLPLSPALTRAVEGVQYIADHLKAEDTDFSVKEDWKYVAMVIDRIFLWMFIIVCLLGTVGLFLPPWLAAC
T2 sequence (P12390 25-500): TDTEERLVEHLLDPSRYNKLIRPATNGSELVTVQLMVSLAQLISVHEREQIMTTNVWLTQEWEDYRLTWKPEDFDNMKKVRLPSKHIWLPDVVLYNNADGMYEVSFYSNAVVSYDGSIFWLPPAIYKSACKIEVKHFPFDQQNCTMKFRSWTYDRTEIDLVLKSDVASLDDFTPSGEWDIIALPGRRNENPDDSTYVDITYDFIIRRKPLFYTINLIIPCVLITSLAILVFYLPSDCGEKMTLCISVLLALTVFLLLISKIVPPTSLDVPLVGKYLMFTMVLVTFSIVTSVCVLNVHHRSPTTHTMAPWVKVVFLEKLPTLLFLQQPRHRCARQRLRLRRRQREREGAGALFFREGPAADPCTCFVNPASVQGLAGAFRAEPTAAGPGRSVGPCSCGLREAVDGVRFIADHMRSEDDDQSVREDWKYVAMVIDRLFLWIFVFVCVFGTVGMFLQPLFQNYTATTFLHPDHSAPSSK
T1 sequence (Q05941 23-502): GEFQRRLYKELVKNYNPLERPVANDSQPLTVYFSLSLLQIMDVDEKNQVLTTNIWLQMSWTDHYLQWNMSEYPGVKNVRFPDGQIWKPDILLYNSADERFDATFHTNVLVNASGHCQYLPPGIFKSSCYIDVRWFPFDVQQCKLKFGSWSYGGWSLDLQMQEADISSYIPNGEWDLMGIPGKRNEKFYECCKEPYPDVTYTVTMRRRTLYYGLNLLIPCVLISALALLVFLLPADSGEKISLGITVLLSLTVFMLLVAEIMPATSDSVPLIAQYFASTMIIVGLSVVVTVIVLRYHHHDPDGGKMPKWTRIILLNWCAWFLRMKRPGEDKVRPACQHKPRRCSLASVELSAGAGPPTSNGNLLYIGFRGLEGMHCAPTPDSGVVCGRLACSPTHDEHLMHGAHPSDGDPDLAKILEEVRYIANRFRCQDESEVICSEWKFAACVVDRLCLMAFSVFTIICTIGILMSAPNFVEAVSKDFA

| Molecule | pKi [1] | pKi [2] | inhibition at 0.1 µM [3] [%] | inhibition at 0.1 µM ([1]; 100 nM analog) [%] | inhibition at 0.1 µM [4] [%] | [^3H]DA release, % inhibition of S-nicotine-evoked release [3] [%] | [^3H]MLA binding, % inhibition ([1]; 100 nM analog) [%] | [^3H]NIC binding, % inhibition [4] [%] |
| --- | --- | --- | --- | --- | --- | --- | --- | --- |
| C(/C=C\CCCC[n+]1cccc2c1CCCC2)=C/CCCC[n+]1cccc2c1CCCC2 [Example 5, cis-cis-N,N′-(dodeca-5,7-diene-1,12-diyl)-bis-(5,6,7,8-tetrahydro-quinolinium)dibromide] | 5.12 | 5.44 | – | – | – | – | – | – |
| C(/C=C\CCCC[n+]1ccc2c(c1)CCCC2)=C/CCCC[n+]1ccc2c(c1)CCCC2 [Example 6, cis-cis-N,N′-(dodeca-5,7-diene-1,12-diyl)-bis-(5,6,7,8-tetrahydro-isoquinolinium)dibromide] | 5.52 | 5.23 | – | – | – | – | – | – |
| c1cc2c([n+](CCCCc3ccc(CCCC[n+]4cccc5c4CCCC5)cc3)c1)CCCC2 [Example 15, N,N′-[1,4-phenylenedi-(4-butanyl)]-bis-(5,6,7,8-tetrahydroquinolinium)dibromide] | 5.11 | 4.92 | – | – | – | – | – | – |
| c1cc(CCCC[n+]2ccc3c(c2)CCCC3)ccc1CCCC[n+]1ccc2c(c1)CCCC2 [Example 16, N,N′-[1,4-phenylenedi-(4-butanyl)]-bis-(5,6,7,8-tetrahydroisoquinolinium)dibromide] | 4.82 | < 4.00 | – | – | – | – | – | – |
| C(#Cc1cccc(C#CCCC[n+]2ccc3ccccc3c2)c1)CCC[n+]1ccc2ccccc2c1 [Example 55, 1,3-bis-(5-isoquinolinium-pent-1-ynyl)-benzene dibromide] | – | – | 31 | 5.6 | 7.4 | – | – | – |
| CN1CCC[C@@H]1c1ccc[n+](CCCC#Cc2cccc(C#CCCC[n+]3cccc([C@H]4CCCN4C)c3)c2)c1 [Example 56, 1,3-bis-[5(2′-S-nicotinium-pent-1-ynyl)]benzene dibromide] | – | – | 18 | 2.6 | 3.1 | – | – | – |
| C(#Cc1cccc(C#CCCC[n+]2cccc(-c3ccccc3)c2)c1)CCC[n+]1cccc(-c2ccccc2)c1 [Example 58, 1,3-bis-[5-(3-phenyl-pyridinium)-pent-1-ynyl]-benzene dibromide] | – | – | 8 | 11 | 3.4 | – | – | – |
| C(#Cc1cccc(C#CCCC[n+]2ccccc2)c1)CCC[n+]1ccccc1 [Example 59, 1,3-bis-(5-pyridinium-pent-1-ynyl)-benzene dibromide] | – | – | 12 | 4.4 | 3.6 | – | – | – |
| Cc1cccc[n+]1CCCCCc1cccc(CCCCC[n+]2ccccc2C)c1 [Example 62, 1,3-bis-[5-(2-methyl-pyridinium)-pentyl]-benzene dibromide] | – | – | 62 | 0 | 7.2 | – | – | – |
| Cc1ccc[n+](CCCCCc2cccc(CCCCC[n+]3cccc(C)c3)c2)c1 [Example 63, 1,3-bis-[5-(3-methyl-pyridinium)-pentyl]-benzene dibromide] | – | – | 45 | 6.24 | 3.5 | – | – | – |
| Cc1cc[n+](CCCCCc2cccc(CCCCC[n+]3ccc(C)cc3)c2)cc1 [Example 64, 1,3-bis-[5-(4-methyl-pyridinium)-pentyl]-benzene dibromide] | – | – | 27 | 3.5 | 4.6 | – | – | – |
| Cc1cc[n+](CCCCCc2cccc(CCCCC[n+]3ccc(C)cc3C)c2)c(C)c1 [Example 65, 1,3-bis-[5-(2,4-dimethyl-pyridinium)-pentyl]-benzene dibromide] | – | – | 26 | 5.6 | 0.5 | – | – | – |
| Cc1cc[n+](CCCCCc2cccc(CCCCC[n+]3ccc(C)c(C)c3)c2)cc1C [Example 66, 1,3-bis-[5-(3,4dimethyl-pyridinium)-pentyl]-benzene dibromide] | – | – | 35 | 7 | 10.5 | – | – | – |
| Cc1cc(C)c[n+](CCCCCc2cccc(CCCCC[n+]3cc(C)cc(C)c3)c2)c1 [Example 67, 1,3-bis-[5-(3,5-dimethyl-pyridinium)-pentyl]-benzene dibromide] | – | – | 34 | 1.4 | 4.8 | – | – | – |
| c1cc(CCCCC[n+]2cccc3ccccc32)cc(CCCCC[n+]2cccc3ccccc32)c1 [Example 68, 1,3-bis-(5-quinolinium-pentyl)-benzene dibromide] | – | – | 16 | 14 | 8.3 | – | – | – |
| c1cc(CCCCC[n+]2ccc3ccccc3c2)cc(CCCCC[n+]2ccc3ccccc3c2)c1 [Example 69, 1,3-bis-(5-isoquinolinium-pentyl)-benzene dibromide] | – | – | 0 | 5.2 | 8.8 | – | – | – |
| Cc1ccc[n+](CCCc2ccc(-c3ccc(CCC[n+]4cccc(C)c4)cc3)cc2)c1 [Example 78, N,N′-[(1,1′-biphenyl)-4,4′-di-(3-propanyl)]-bis-(3-methylpyridinium)dibromide] | – | – | 44 | 5.5 | 0 | – | – | – |
| Cc1ccc[n+](CCOCCOCCOCC[n+]2cccc(C)c2)c1 [Example 82, N,N′-{2,2′-[oxybis-(2,1-ethandiyloxy)]bis-ethyl}-bis(3-methylpyridinium)dichloride] | – | – | 58 | 13 | 17 | – | – | – |
| Cc1cc[n+](CCOCCOCCOCC[n+]2ccc(C)cc2)cc1 [Example 83, N,N′-{2,2′-[oxybis-(2,1-ethandiyloxy)]bis-ethyl}-bis(4-methylpyridinium)dichloride] | – | – | 53 | 7 | 15 | – | – | – |
| Cc1cc[n+](CCC#Cc2ccc(C#CCC[n+]3ccc(C)c(C)c3)cc2)cc1C [Example 100, N,N′-[(1,4-phenylene)-bis-(4-butynyl)]-bis-(3,4-dimethyl-pyridinium)dibromide] | – | – | 31 | 0 | 3 | – | – | – |
| Cc1cc(C)c[n+](CCC#Cc2ccc(C#CCC[n+]3cc(C)cc(C)c3)cc2)c1 [Example 101, N,N′-[(1,4-phenylene)-bis-(4-butynyl)]-bis-(3,5-dimethyl-pyridinium)dibromide] | – | – | 14 | 0 | 0 | – | – | – |
| N,N′-[(1,1′-biphenyl)-4,4′-di-(3-propanyl)]-bis-[3-(2′-S-1-methyl-pyrrolidin-2-yl)-pyridinium]dibromide [Example 70] | – | – | – | – | – | 8 | 11 | 12 |
